The subject of test [1] is LTC4 synthesis in human basophilic leucocytes. The experiment in a line: Inhibition of arachidonic acid induced LTC4 synthesis. The test is classed as cell-based. The settings on record: Leucocyte, HPLC, UV 280 nm. The method, then: (§1) The inhibition of arachidonic acid induced LTB4 and LTC4 synthesis in human basophilic leucocytes was determined with liquid chromatography and UV detection. LTB4 and LTC4 were separated first by HPLC with a Spherisorb ODS colon (5 μm, 150×4.6 mm) and Spectroflow 400 Kratos Analytical pump. The flow rate was 1 ml/min and the solvents were methanol/water/acetic acid […], pH 5.0 for LTB4 and methanol/water/acetic acid/phosphoric acid (65/35/0.07/0.03), pH 5.5 for LTC4. The peaks were analyzed further with Spektroflow 773 Kratos Analytical UV absorbance detector and leukotrienes were detected at the wavelength of 271 nm and 280 nm for LTB4 and LTC4, respectively.

In test [2] the test system is LTB4 synthesis in human basophilic leucocytes. The experiment in a line: Inhibition of arachidonic acid induced LTB4 synthesis. Type of test: cell-based. Conditions: Leucocyte, HPLC, UV 271 nm. The method, then: as §1
The subject of test [3] is PDE IV. The experiment in a line: Inhibition of PDE IV. Type of test: biochemical. Conditions: PDE isoenzymes isolated using DEAE-Sepharose chromatography. The method, then: (§2) PDE isoenzymes were isolated using DEAE-Sepharose chromatography as described by Reeves et al. in Biochem. J., 241 (1987), pp. 535-541. PDE IV and PDE III activities were determined by the method of Alajoutsijarvi and Nissinen as described in Anal. Biochem. 165 (1987), pp. 128-132.

Test [4] has as its target T1, PDE III (Homo sapiens, UniProt Q14432).
T1 construct: PDE isoenzymes were isolated using DEAE-Sepharose chromatography; from tissue; the cited Reeves et al. 1987 used human and guinea-pig cardiac ventricle (own knowledge)
Put plainly: Inhibition of PDE III. Type of test: biochemical. The settings on record: PDE isoenzymes isolated using DEAE-Sepharose chromatography. The method, then:
as §2

Test [5] has as its target T1, PDE III. Conditions: prior art compound, no test shown; cited from earlier work.
For test [6], the system named is PDE IV. Conditions: prior art compound, no test shown; cited from earlier work.

Data on 2 molecules can be found in US5356923A, “1-hydroxy-4(3-cyclopentyloxy-4-methoxyphenyl)-2-pyrrolidone and anti-hypertensive use thereof” (Orion-yhtyma Oy, priority 1990, dated 1994).

T1 sequence (Q14432 whole entry): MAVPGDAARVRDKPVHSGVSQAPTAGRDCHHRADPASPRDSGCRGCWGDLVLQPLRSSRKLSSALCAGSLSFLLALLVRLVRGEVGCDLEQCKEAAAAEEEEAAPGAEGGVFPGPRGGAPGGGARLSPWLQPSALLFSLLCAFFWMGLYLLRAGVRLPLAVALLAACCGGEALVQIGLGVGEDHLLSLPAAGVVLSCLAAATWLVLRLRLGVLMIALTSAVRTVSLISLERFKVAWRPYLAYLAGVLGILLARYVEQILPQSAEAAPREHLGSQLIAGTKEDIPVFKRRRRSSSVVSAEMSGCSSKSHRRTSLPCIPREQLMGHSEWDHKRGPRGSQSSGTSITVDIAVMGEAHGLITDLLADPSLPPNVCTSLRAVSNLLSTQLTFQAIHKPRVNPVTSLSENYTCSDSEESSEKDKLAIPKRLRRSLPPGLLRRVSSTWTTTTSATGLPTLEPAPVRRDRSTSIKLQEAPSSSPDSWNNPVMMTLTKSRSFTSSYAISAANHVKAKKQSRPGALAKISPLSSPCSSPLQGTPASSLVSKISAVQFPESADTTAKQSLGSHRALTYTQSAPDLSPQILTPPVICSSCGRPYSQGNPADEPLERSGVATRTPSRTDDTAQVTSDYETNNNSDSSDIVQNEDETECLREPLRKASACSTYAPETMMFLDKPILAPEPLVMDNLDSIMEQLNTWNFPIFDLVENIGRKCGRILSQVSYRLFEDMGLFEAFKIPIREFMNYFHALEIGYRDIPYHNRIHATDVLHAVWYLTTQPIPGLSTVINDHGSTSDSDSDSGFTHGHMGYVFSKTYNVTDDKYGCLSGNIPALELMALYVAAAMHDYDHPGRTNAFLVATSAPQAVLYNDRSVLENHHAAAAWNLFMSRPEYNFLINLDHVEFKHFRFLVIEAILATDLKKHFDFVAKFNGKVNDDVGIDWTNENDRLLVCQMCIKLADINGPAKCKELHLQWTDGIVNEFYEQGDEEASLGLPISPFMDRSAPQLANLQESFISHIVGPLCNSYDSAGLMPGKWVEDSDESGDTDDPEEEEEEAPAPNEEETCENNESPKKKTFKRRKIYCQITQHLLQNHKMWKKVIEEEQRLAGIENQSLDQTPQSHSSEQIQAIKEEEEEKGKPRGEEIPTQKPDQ

On to `COc1ccc(C2CC(=O)N(O)C2)cc1OC1CCCC1` (stereo not drawn) [Example 1, 1-Hydroxy-4-(3-cyclopentyloxy-4-methoxyphenyl)-2-pyrrolidone], for which the IC50 in test [1] is 3.2 µM; in test [2], 3.7 µM; in test [3] it was 0.9 µM; in test [4], 205 µM.
Consider `COc1ccc(C2CNC(=O)C2)cc1OC1CCCC1` (stereo not drawn) [rolipram, 4-[3-(cyclopentyloxy)-4-methoxyphenyl]-2-pyrrolidone], for which, in test [5], the “inhibition of PDE III (in words)” value was “also inhibits PDE III”. For the same molecule, the “PDE IV selectivity (in words)” value in test [6] is recorded as “not selective PDE IV inhibitor”.
